PubChem BioAssay AID1895 (NMMLSC, 2009)
The source made the active and inactive calls. How the calls were made is not given here.

Molecular target: MEK5 PB1 domain binding to MEKK2 (MAP3K2) mutant PB1, human
Assay: mutant MEKK2 PB1-MEK5 interaction blockers – biochemical, bead multiplex flow cytometry, dose response (AID 1895)
Details: Bead-based multiplex flow cytometry; for Ki: measured here: Ki for PB1 binding

Compound | EC50 | Ki [µM]
CN(C)CCCn1c(SCC(=O)Nc2nc(-c3cccc(Br)c3)cs2)nc2ccccc2c1=O | > 30 µM (inactive) | –
COCc1c(C#N)c(NCCc2ccccc2)nc(C)c1[N+](=O)[O-] | > 30 µM (inactive) | –
CCc1ccc(Nc2n[n+](-c3ccccc3)c(-c3cc(OC)c(OC)cc3Br)s2)cc1 | 8.3 µM | –
NC(N)=N/N=C/c1ccc(OCc2ccc(Cl)cc2Cl)cc1 | 2.66 µM | –
CN1CCN(c2ccc(NC(=O)c3ccc(-c4ccc(Cl)cc4)o3)cc2)CC1 | > 30 µM (inactive) | –
CCN(CC)CCOC(=O)c1ccc(N/C=C(/C#N)c2nc(-c3ccc(OC)cc3)cs2)cc1 | > 30 µM (inactive) | –
CN1C(=O)/C(=C\c2ccc(-c3ccccc3)o2)SC1=S | > 30 µM (inactive) | –
COc1ccc(NC(=O)N(Cc2cc3cc(C)ccc3[nH]c2=O)CC2CCCO2)cc1 (stereo not given) | > 30 µM (inactive) | –
Cc1nc(N)sc1-c1csc(Nc2ncccn2)n1 | > 30 µM (inactive) | –
CC(=O)Nc1cccc2c1C(=O)N(c1cccc(C)c1)C2=O | > 30 µM (inactive) | –
COc1ccc(-c2cc(C#N)nc(N3CCNCC3)n2)cc1 | > 30 µM (inactive) | –
O=C1c2ccccc2-c2onc3ccc(NCc4ccco4)c1c23 | > 30 µM (inactive) | –
Brc1ccc(N=C/C=C/C=C/Nc2ccc(Br)cc2)cc1 | > 30 µM (inactive) | –
CCN1/C(=C/C=C/C=C/C=C/c2sc3ccccc3[n+]2CC)Sc2ccccc21 | > 30 µM (inactive) | –
CN(C)c1ccc(/C=C/C=C2/SC(=S)N(c3ccccc3)C2=O)cc1 | inactive | –
CC(=O)c1c(C)[nH]c(C(=O)NC2=NCCS2)c1C | > 30 µM (inactive) | –
Cc1ccc(-c2c[n+](CC(=O)Nc3nc(-c4ccc(F)cc4)cs3)c3n2CCC3)cc1 | > 30 µM (inactive) | –
CSc1cccc(NC(=S)N(CCCN2CCCC2)Cc2cccn2Cc2ccc(Cl)cc2)c1 | 7.1 µM | –
CCCCCc1cc(=O)oc2c(C(CCN3CCCC3)c3ccc(N(C)C)cc3)c(OC)cc(OC)c12 (stereo not given) | 26.4 µM | –
CNC[C@H](CC1CCCCC1)NC[C@H](Cc1ccccc1)NCCC12CC3CC(CC(C3)C1)C2 | > 30 µM (inactive) | –
NC(N)=N/N=C/c1ccc(OCc2ccccc2Cl)cc1 | > 30 µM (inactive) | –

Compound | EC50 | Ki [µM]
CCN1/C(=C/c2ccc3cc(C)cc(C)c3[n+]2CC)Sc2cc(C)ccc21 | 1.77 µM | 1.73
N#CC(C#N)=c1ccc2c(c1)N1C(c3ccccc3)=CC(c3ccccc3)C3CCCCC31N=2 (stereo not given) | > 30 µM (inactive) | –
CCOC(=O)N1CCN(c2c(N3CCN(c4ccccc4F)CC3)c(=O)c2=O)CC1 | > 30 µM (inactive) | –
CCCCn1c(O)c(/C=C/C=C/C=Nc2ccccc2)sc1=S | inactive | –
O=C(NNc1c2ccccc2nc2ccccc12)c1cc2ccccc2cc1O | > 30 µM (inactive) | –
CCN1C(c2ccccc2)=C(c2ccccc2)S/C1=C/C=C1\SC(=S)N(C)C1=O | inactive | 3.16
CCC(/C=C1\Sc2ccc(OC)cc2N1CC)=C\c1sc2ccc(OC)cc2[n+]1CCCS(=O)(=O)[O-] | > 30 µM (inactive) | –
CCN1/C(=C/C(C)=C/c2sc3ccccc3[n+]2CC)Sc2ccccc21 | > 30 µM (inactive) | –
COc1cc2nc(N3CCN(c4cc(C)ccc4C)CC3)nc(N)c2cc1OC | 5.31 µM | –
C#CCOCCOCCOCCNc1nc(N2CCN(C(=O)[C@H]([C@@H](C)CC)n3cc([C@@H](N)Cc4ccc(O)cc4)nn3)CC2)nc(N2CCN(C(=O)[C@H](CCCCN)n3cc([C@@H](N)CC(C)C)nn3)CC2)n1 | 14.7 µM | –
COc1ccc2nc3cc(Cl)ccc3c(Nc3cc(C(C)C)c(O)cc3C)c2c1 | 5.37 µM | –
Nc1cc2nc[nH]c2cc1N | inactive | 5.77
C#CCOCCOCCOCCNc1nc(N2CCN(C(=O)C(Cc3cc4ccccc4[nH]3)n3cc(C(N)C(C)CC)nn3)CC2)nc(N2CCN(C(=O)C(Cc3cc4ccccc4[nH]3)n3cc(C(N)C(C)CC)nn3)CC2)n1 (stereo not given) | 4.1 µM | –
COc1ccc(N2CC(C(=O)Nc3nnc(SCc4ccccn4)s3)CC2=O)cc1 (stereo not given) | > 30 µM (inactive) | –
C#CCOCCOCCOCCNc1nc(N2CCN(C(=O)[C@H](Cc3cc4ccccc4[nH]3)n3cc([C@@H](N)CC(C)C)nn3)CC2)nc(N2CCN(C(=O)[C@H](Cc3cc4ccccc4[nH]3)n3cc([C@@H](N)CC(C)C)nn3)CC2)n1 | 1.44 µM | –
COc1ccccc1N(CN1C(=O)c2ccccc2C1=O)C(=O)c1cccc(C)c1 | > 30 µM (inactive) | –
Cc1ccc(-c2csc(NC(=O)C[n+]3cc(-c4ccc(C)cc4)n4c3CCC4)n2)cc1 | > 30 µM (inactive) | –
COc1ccc(Cn2c(SCc3ccc(C)cc3)nc3cc(OC)c(OC)cc3c2=N)cc1Cl | 2.23 µM | –
CCOc1ccc(C2=C/C(=C/c3cccnc3)C(=O)O2)cc1 | > 30 µM (inactive) | –
CCN1/C(=C\c2ccc3cc(C)ccc3[n+]2CC)Sc2cc(C)c(C)cc21 | > 30 µM (inactive) | –
CN1C(=CC=C2C=C(I)C(=O)C(I)=C2)C(C)(C)c2ccccc21 | 5.14 µM | 5.04

Compound | EC50 | Ki [µM]
CS(=O)(=O)N1N=C(c2ccccc2)CC1c1ccc2c(c1)OCO2 (stereo not given) | inactive | 0.95
CCCCCCCCCCOC(=O)Cn1c(COc2cccc(OC)c2)[n+](C)c2ccccc21 | 21.5 µM | –
COc1ccc(-n2nc3c(N)n[nH]c3cc2=O)cc1 | > 30 µM (inactive) | –
CCOC(=O)c1c(CSC(=N)N)n(-c2ccc(C)cc2)c2cc(Br)c(OC(C)=O)cc12 | 10.3 µM | –
C#CCOCCOCCOCCNc1nc(N2CCN(C(=O)[C@H](CCC(=O)O)n3cc(C(N)CO)nn3)CC2)nc(N2CCN(C(=O)[C@H](Cc3cc4ccccc4[nH]3)n3cc(C(N)[C@H](C)CC)nn3)CC2)n1 (stereo not given in full) | > 30 µM (inactive) | –
Cc1cc(N=Nc2ccc(C)c(N=Nc3cc(C)c(N)cc3N)c2)c(N)cc1N | > 30 µM (inactive) | –
CCN1CCN(CCNC(=O)c2ccc(/C=C3/Sc4ccccc4N(Cc4cccc(Cl)c4)C3=O)cc2)CC1 | 6.53 µM | –
CN(C)c1ccc(NC(=O)CN2CCC(O)(c3ccccc3)CC2)cc1 | > 30 µM (inactive) | –
C#CCOCCOCCOCCNc1nc(N2CCN(C(=O)[C@H]([C@@H](C)CC)n3cc([C@@H](N)CO)nn3)CC2)nc(N2CCN(C(=O)[C@H](Cc3cc4ccccc4[nH]3)n3cc([C@@H](N)Cc4ccc(O)cc4)nn3)CC2)n1 | inactive | –
CN(C)CCNc1ncnc2c1sc1nc(-c3ccccc3)c3c(c12)CCCC3 | 4.06 µM | –
CCCCCCCCCCOC(=O)Cn1c(COc2ccc(C)cc2)[n+](C)c2ccccc21 | 4.57 µM | –
O=[N+]([O-])c1ccc(/C=C/C2=NN(c3ccccc3)C(c3ccco3)C2)o1 (stereo not given) | > 30 µM (inactive) | –
CCCCN(CC)CCNC(=O)c1cc2c(-c3ccc(Cl)cc3)nn(C)c2s1 | 22.8 µM | –
CCN(CC)CCOC(=O)c1ccc(N/C=C(/C#N)c2nc(-c3cccc(OC)c3)cs2)cc1 | > 30 µM (inactive) | –
C/C(=N\NC(=O)c1cc(O)cc(O)c1)c1ccc(NC(=O)Cc2ccccc2)cc1 | > 30 µM (inactive) | –
CCc1ccc(Nc2n[n+](-c3ccccc3)c(-c3ccc(OC)c(Br)c3)s2)cc1 | 4.62 µM | –
CCCCCCOc1ccc(/C(C)=N/NC2=NCCN2)cc1[N+](=O)[O-] | 14.4 µM | –
CCCN1C(=O)/C(=C\C=C2/Sc3ccccc3N2CC)SC1=S | inactive | 2.61
CCOC(=O)C(C(=O)OCC)c1cc(Br)c2noc3c2c1C(=O)c1ccccc1-3 | inactive | 2.9
CCC(/C=C1\Sc2ccc(OC)cc2N1CCO)=C\c1sc2ccc(OC)cc2[n+]1CCO | 0.51 µM | 0.5
CCOC(=O)C1=C(c2ccccc2)NC(N)=NC1c1ccc(OCc2ccc(C(=O)OC)cc2)cc1 (stereo not given) | 2.38 µM | –

Compound | EC50 | Ki [µM]
C#CCOCCOCCOCCNc1nc(N2CCN(C(=O)[C@H](Cc3cc4ccccc4[nH]3)n3cc([C@@H](N)C(C)CC)nn3)CC2)nc(N2CCN(C(=O)[C@H](Cc3cc4ccccc4[nH]3)n3cc([C@@H](N)CC(C)C)nn3)CC2)n1 (stereo not given in full) | 3.62 µM | –
Cc1ccc(-n2cc(CNCCCn3ccnc3C)c(-c3ccc(F)cc3)n2)cc1 | > 30 µM (inactive) | –
CCCN(CCC)CCNC(=O)c1cc2c(-c3ccc(Cl)cc3)nn(C)c2s1 | 11.2 µM | –
O=C(Nc1ccc(Cl)cn1)c1ccc2c(Cl)c3c(nc2c1)CCC3 | > 30 µM (inactive) | –
CCCCCCCCCCOC(=O)Cn1c(COc2ccccc2)[n+](C)c2ccccc21 | 6 µM | –
S=C(Nc1cccc(Cl)c1)N(CCCN1CCCC1)Cc1cccn1Cc1ccc(Cl)cc1 | 5.85 µM | –
CC[C@@H](C)[C@H](CNC)NC[C@@H](Cc1cccc2ccccc12)NCCc1cccc(C(F)(F)F)c1 | > 30 µM (inactive) | –
CCN(Cc1ccccc1)S(=O)(=O)c1ccc(C(=O)N(CCCN(C)C)c2nc3ccc(F)cc3s2)cc1 | 7.18 µM | –
C#CCOCCOCCOCCNc1nc(N2CCN(C(=O)[C@H]([C@@H](C)CC)n3cc([C@@H](N)CC(C)C)nn3)CC2)nc(N2CCN(C(=O)[C@H](Cc3cc4ccccc4[nH]3)n3cc([C@@H](N)CC(C)C)nn3)CC2)n1 | 20.9 µM | –
C#CCOCCOCCOCCNc1nc(N2CCN(C(=O)C(Cc3ccc(O)cc3)n3cc(C(N)CC(C)C)nn3)CC2)nc(N2CCN(C(=O)C(Cc3cc4ccccc4[nH]3)n3cc(C(N)Cc4ccc(O)cc4)nn3)CC2)n1 (stereo not given) | 12.8 µM | –
C#CCOCCOCCOCCNc1nc(N2CCN(C(=O)[C@H]([C@@H](C)CC)n3cc([C@@H](N)CC(C)C)nn3)CC2)nc(N2CCN(C(=O)[C@H](Cc3cc4ccccc4[nH]3)n3cc([C@@H](N)Cc4ccc(O)cc4)nn3)CC2)n1 | > 30 µM (inactive) | –
Cc1ccnc(NC(=O)C2(c3cccs3)CCOCC2)c1 | > 30 µM (inactive) | –
CCCCCc1cc(=O)oc2c(C(CCN3CCCC(C)C3)c3ccc4c(c3)OCO4)c(OC)cc(OC)c12 (stereo not given) | > 30 µM (inactive) | –
CCN1CCN(Cc2ccc(NC(=O)c3ccc(C)c(NC(=O)C(=O)c4c[nH]c5ccccc45)c3)cc2C(F)(F)F)CC1 | > 30 µM (inactive) | –
CN1CCN(CC(O)COc2ccc(C34CC5CC(CC(C5)C3)C4)cc2)CC1 (stereo not given) | > 30 µM (inactive) | –
COC(=O)c1c(C)oc(C)c1S(=O)(=O)N(Cc1ccccc1)C(C)C | > 30 µM (inactive) | –
COc1cc(CNCCc2c[nH]c3ccccc23)ccc1OCc1ccccc1F | > 30 µM (inactive) | –
CCCCCCCCCCOC(=O)Cn1c(COc2ccccc2OC)[n+](C)c2ccccc21 | > 30 µM (inactive) | –
CCCCCCCCCCCCCCCC[n+]1ccc(/C=N/O)cc1 | 8.61 µM | –
